The results in this text go back to patent US9593144B2, “FPR1 antagonist derivatives and use thereof” (CHANG GUNG UNIVERSITY, priority 2014, dated 2017).

Data set [1] concerns human neutrophils. Briefly: cells. The format is cell-based. Particulars: human neutrophils, fMLP/CB, mean ± SEM, n = 3, read-out: Anti-inflammation O2•− generation (IC50). An excerpt:
Tables 5 and 6 explore whether there is an anti-inflamatory effect in the dipeptide derivatives. Because ferricytochrome c cannot penetrate cell membranes, it reacts with superoxide anion extracellularly. Also, there are absorptive reactions at 550 nm, and differences among the absorptive reactions can be used to evaluate the influence on the release of superoxide anion. The elastase is released by degranulation as the neutrophil is activated. Tables 5 and 6 use the substrate, MeO-Suc-Ala-Ala-Pro-Val-p-nitroanilide, with the specificity for reacting with the elastase so as to evaluate the influence of the candidate compound on the elastase release.
Blood was taken from healthy human donors (20-32 years old) by venipuncture, following a protocol approved by the Institutional Review Board at Chang Gung Memorial Hospital. Neutrophils were isolated by a standard method of dextran sedimentation prior to centrifugation in a Ficoll Hypaque gradient and the hypotonic lysis of erythrocytes.
The evaluation of O2.^− generation was based on the SOD-inhibitable reduction of ferricytochrome c. In brief, after supplementation with 0.5 mg ml^−1 ferricytochrome c and 1 mM Ca^2+, neutrophils were equilibrated at 37° C. for 2 min and incubated with drugs […].

Data set [2] has as its system human neutrophils. In words: cells. Format: cell-based. The note with it: fMLP/CB, mean ± SEM. As for the experimental part:
Degranulation of azurophilic granules was determined by elastase release as described above. Experiments were performed using MeO-Suc-[…]-nitroanilide as the elastase substrate. […] Results are expressed as the percentage of elastase release in the drug-free control group, DMSO. Tables 5 and 6 explore whether there is an anti-inflamatory effect in the dipeptide derivatives. Because ferricytochrome c cannot penetrate cell membranes, it reacts with superoxide anion extracellularly. Also, there are absorptive reactions at 550 nm, and differences among the absorptive reactions can be used to evaluate the influence on the release of superoxide anion. The elastase is released by degranulation as the neutrophil is activated. Tables 5 and 6 use the substrate, MeO-Suc-[…]-nitroanilide, with the specificity for reacting with the elastase so as to evaluate the influence of the candidate compound on the elastase release. Blood was taken from healthy human donors (20-32 years old) by venipuncture, following a protocol approved by the Institutional Review Board at Chang Gung Memorial Hospital. Neutrophils were isolated by a standard method of dextran sedimentation prior to centrifugation in a Ficoll Hypaque gradient and the hypotonic lysis of erythrocytes. […] The degranulation of azurophilic granules was determined by elastase release as described above. Experiments were performed using MeO-Suc-[…]-nitroanilide as the elastase substrate. Briefly, after supplementation with MeO-Suc-[…]-nitroanilide ([…] neutrophils (6×10^5 ml^-1) were equilibrated at 37° C. for 2 min and incubated with drugs for 5 min. […] The results are expressed as the percentage of elastase release in the drug-free control group.

[3] abbreviates: Neutrophil, n = 3, Table 1, read-out: Anti-inflammation NE release (IC50).

SMILES strings stand for the structures. Read-outs that look alike come from different tables or passages of the source. Square brackets hold non-standard residues; d marks the D form. Peptide text beside a SMILES is read from it. * marks the point of attachment. Hydrocinnamoyl = O=C(CCc1ccccc1)*; PhAc = O=C(Cc1ccccc1)*

For the compound `COC(=O)[C@@H](Cc1ccccc1)NC(=O)[C@H](Cc1c[nH]c2ccccc12)NC(=O)c1ccc(OC)cc1` [Compound 7, N—(N-4-Methoxylbenzoyl-L-tryptophanyl)-D-phenylalanine methyl ester], the melting point (commonly the temperature of the solid-liquid transition) was in the range of 151 to 153 °C. The IC50 with human neutrophils [1] (Neutrophil, Table 1) was more than 30 µM. The IC50 with human neutrophils [2] (setting [3]) is more than 30 µM.

`COC(=O)[C@@H](Cc1ccccc1)NC(=O)[C@H](Cc1c[nH]c2ccccc12)NC(=O)Cc1ccccc1` [Compound 8, N—(N-Phenylacetyl-L-tryptophanyl)-D-phenylalanine methyl ester] (PhAc-Trp-[dF]-OMe): the melting point was in the range of 182 to 184 °C. In the data set on human neutrophils [1] (Neutrophil, Table 1), the IC50 amounted to 10.2 ± 4.53 µM. The IC50 in the data set on human neutrophils [2] (setting [3]) worked out at 5.71 ± 0.39 µM.

`COC(=O)[C@@H](Cc1ccccc1)NC(=O)[C@H](Cc1c[nH]c2ccccc12)NC(=O)CCc1ccccc1` [Compound 9, N—(N-Phenylpropanoyl-L-tryptophanyl)-D-phenylalanine methyl ester] (Hydrocinnamoyl-Trp-[dF]-OMe) returned a melting point of 159 to 161 °C. Also, in the data set with human neutrophils [1] (Neutrophil, Table 1), the IC50 stood at 10.1 ± 3.05 µM. Further, the IC50 in the data set with human neutrophils [2] (setting [3]) is 12.5 ± 4.87 µM.

Turning to `O=C(N[C@@H](Cc1c[nH]c2ccccc12)C(=O)N[C@@H](CO)Cc1ccccc1)c1ccccc1` [Compound 13a, N—(N-Benzoyl-L-tryptophanyl)-D-phenylalaninol], the melting point lay within 151 to 153 °C. Moreover, the IC50 in the data set on human neutrophils [1] (Neutrophil, Table 3) is more than 30 µM. Moreover, in the data set on human neutrophils [2] (Neutrophil, n = 3, Table 3, read-out: Anti-inflammation NE release (IC50)), the IC50 was more than 30 µM.

In the case of `O=C(N[C@@H](Cc1c[nH]c2ccccc12)C(=O)N[C@@H](CO)Cc1ccccc1)c1ccccc1` [Compound 13b, N—(N-Benzoyl-L-tryptophanyl)-D-phenylalaninol], the melting point was in the range of 120 to 122 °C. The IC50 in the data set on human neutrophils [1] (Table 3) is more than 30 µM. In the data set with human neutrophils [2] (n = 3, Table 3, read-out: Anti-inflammation NE release (IC50)), the IC50 was more than 30 µM.
